Results taken from ChEMBL document CHEMBL4837246 (J Med Chem, 2021).

Legend:
in vivo [1] = settings: Wistar, rat, iv, 0.3 mg/kg
in vivo [2] = settings: mouse, iv, 0.3 mg/kg
in vivo [3] = settings: Wistar, rat, iv, 0.3 mg/kg; remark: listed apart in the source
in vivo [4] = settings: mouse, iv, 0.3 mg/kg; remark: listed apart in the source
in vivo [5] = settings: Wistar, rat, iv, 0.3 mg/kg; remark: listed apart in the source
in vivo [6] = settings: mouse, iv, 0.3 mg/kg; remark: listed apart in the source
in vivo [7] = settings: Wistar, rat, po, 0.6 mg/kg
in vivo [8] = settings: Wistar, rat, po, 0.6 mg/kg; remark: listed apart in the source

With `FC(F)c1cncc(-c2ccc3ncc4nnc(C5=CCCOCC5)n4c3c2)c1` the clearance at 24 h (in vivo [1]) was 36.7 mL/min/kg, the clearance at 24 h (in vivo [2]) was 135 mL/min/kg and the Vd at 24 h (in vivo [3]) was 1.8 L/kg. It also gave a Vd at 24 h (in vivo [4]) of 3.7 L/kg, a half-life at 24 h (in vivo [5]) of 50.4 min and a half-life at 24 h (in vivo [6]) of 40.8 min. For the same compound, the bioavailability at 24 h (in vivo [7]) was 22% and the half-life at 24 h (in vivo [8]) was 240 min.
